From patent US5807889A, “Aminomethylindans, -benzofuranes and -benzothiophenes” (H. Lundbeck A/S, priority 1992, dated 1998)

How the values were obtained:
5-HT1A receptors [1] = target: T1, 5-HT1A receptors (Rattus norvegicus, UniProt P19327); experiment: 8-OH DPAT cue agonism in rats (drug discrimination); type: in vivo, male Wistar rats; set-up: agonist effects of a test compound on 5-HT1A receptors in vivo; from tissue; host or cells: living male Wistar rats (endogenous receptor, in vivo); conditions: sc, read-out: 8-OH DPAT Cue Agonism ED50, rats, s.c., usually 30 or 45 min before test
T1 sequence (P19327 1-422): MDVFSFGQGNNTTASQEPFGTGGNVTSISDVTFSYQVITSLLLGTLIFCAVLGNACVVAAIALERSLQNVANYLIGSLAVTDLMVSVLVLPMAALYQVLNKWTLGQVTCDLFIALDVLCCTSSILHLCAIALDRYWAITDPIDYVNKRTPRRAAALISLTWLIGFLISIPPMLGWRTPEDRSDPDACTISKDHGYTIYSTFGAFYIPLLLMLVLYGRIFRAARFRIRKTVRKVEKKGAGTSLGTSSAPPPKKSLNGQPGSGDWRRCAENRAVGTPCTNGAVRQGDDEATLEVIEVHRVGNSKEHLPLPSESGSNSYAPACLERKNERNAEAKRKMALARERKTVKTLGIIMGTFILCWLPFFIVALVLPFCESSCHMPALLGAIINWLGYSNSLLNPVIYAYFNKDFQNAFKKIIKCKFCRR
Experimental: 8-OH DPAT Cue Agonisme in Rats
This test model is used to determine the agonist effects of a test compound on 5-HT1A receptors in vivo. A related method is described by Tricklebank, M. D., et al, Eur. J. Pharmacol., 1987, 133, 47-56; Arnt, J. Pharmacology & Toxicology, 1989, 64, 165.
Male Wistar rats are trained to discriminate between 8-OH-DPAT (0.4 mg/kg, i.p., 15 min pretreatment) and physiological saline in operant chambers equipped with two response levers. Between the levers a dipper is placed, where water rewards (0.1 ml) are presented. The rats are water deprived for at least 24 h and work in a fixed ratio (FR) schedule (final FR=32).
Following 8-OH-DPAT administration responding is reinforced only on a designated (drug) lever, whereas responding on the opposite lever has no consequences. Following saline administration responding is reinforced on the lever opposite to the drug lever. Drug and saline trials alternate randomly between days. The level of s discrimination occuracy is expressed as the per cent drug responses and is calculated as the number of correct responses ×100 divided by the sum of the correct and incorrect responses before the first reward. The time to the first reward is also recorded as a measure of reaction time. When stable occuracy (mean correst responding=90%; individual rats at least 75% correct responding) is obtained test sessions are included between training days. Test compound is injected s.c. usually 30 min or 45 min, respectively, before beginning of the test. The test trial is terminated when a total of 32 responses are made on either lever or when 20 min have elapsed. No reward is given and the rats have free access to water for 20-30 min after the test. The effects are expressed as per cent drug responding. Only results from rats making at least 10 responses on one lever are included in data analysis. Furthermore, only test sessions in which at least half of the rats respond are included.
The per cent inhibition of drug response obtained for each dose of test compound is used to calculate ED50 values by log-probit analysis.

5-HT1A receptors [2] = target: T1, 5-HT1A receptors; experiment: Inhibition of 3H-8-OH-DPAT binding to serotonin 5-HT1A receptors in rat brain in vitro; set-up: 5-HT1A receptors in membranes from rat brain minus cerebellum; from tissue; host or cells: brain minus cerebellum of male Wistar (Mol:Wist) rats, crude membranes; species or system rat (male Wistar); conditions: 3H 8-OH DPAT binding IC50, 1 nM 3H-8-OH-DPAT, rat brain minus cerebellum membranes, 37° C., 15 min
Experimental: Male Wistar (Mol:Wist) rats (125-250 g) are sacrificed and the brain is dissected and weighed. The brain tissue minus cerebellum is homogenized (Ultra Turrax, 20 sec) in 10 ml of ice cold 50 nM Tris buffer pH 8.0 (at 25° C.) containing 120 mM NaCl, 4 mM CaCl2 and 4 mM MgCl2. The homogenate is centrifuged at 20,000 g for 10 min at 4° C. The pellet is homogenized in 10 ml of buffer and incubated at 37° C. for 10 min. The homogenate is centrifuged as above and the pellet is homogenized in 100 vol (w/v) ice cold buffer containing 10 μM of pargyline.
Incubation tubes kept on ice in triplicate receive 100 μl of drug solution in water (or water for total binding) and 1000 μl of tissue suspension (final tissue content corresponds to 10 mg original tissue). […] After incubation for 15 min the samples are filtered under vacuum (0-50 mBar) through Whatman GF/F filters (25 mm). The tubes are rinsed with 5 ml ice cold 0.9% NaCl which is then poured on the filters. Thereafter, the filters are washed with 2×5 ml 0.9% NaCl. The filters are placed in counting vials and 4 ml of appropriate scintillation fluid (e.g. Picofluor™ 15) are added. After shaking for 1 h and storage 2 h in the dark the content of radioactivity is determined by liquid scintillation counting. Specific binding is obtained by subtracting the nonspecific binding in the presence of 10 μM of 5-HT.
For determination of the inhibition of binding five concentrations of drugs covering 3 decades are used.
The IC50 -value is determined as the concentration, at which the binding is 50% of the total binding in control samples minus the nonspecific binding in the presence of 10 μM of 5-HT.

[3] = clinical studies; Glitz, Pohl, Drugs 1991; cited from earlier work

Compound | ED50 (5-HT1A receptors [1]) [µmol/kg] | IC50 (5-HT1A receptors [2]) [nM] | usefulness in the treatment of anxiety disorders (in words) [3]
CCCN(CCC)CC1CCc2cc(Cl)c(NC(C)=O)cc21 (single isomer, unassigned; (-)) [Compound 11b, (-)-6-Acetylamino-5-chloro-1-(N,N-dipropylaminomethyl)indan] | 0.44 | 15 | 
CCCN(CCC)CC1CCc2ccc(NC=O)cc21 (centres unmarked) [Compound 1a, 1-(N,N-dipropylaminomethyl)-6-formylaminoindan] | 0.0052 | 4.1 | 
CN(C)CC1CCc2ccc(NC=O)cc21 (centres unmarked) [Compound 1b, 1-(N,N-dimethylaminomethyl)-6-formylaminoindan] | 0.41 | 110 | 
O=CNc1ccc2c(c1)C(CN1CCCCC1)CC2 (centres unmarked) [Compound 1c, 6-formylamino-1-(1-piperidinomethyl)indan] | 0.33 | 42 | 
CCCN(CCC)CC1CCc2ccc(NC(C)=O)cc21 (centres unmarked) [Compound 2a, 6-Acetylamino-1-(N,N-dipropylaminomethyl)indan] | 0.01 | 0.89 | 
CC(=O)Nc1ccc2c(c1)C(CN(C)C)CC2 (centres unmarked) [Compound 2b, 6-Acetylamino-1-(N,N-dimethylaminomethyl)indan] | 0.21 | 25 | 
CCCN(CCC)CC1CCc2ccc(NC(=O)c3ccc(F)cc3)cc21 (centres unmarked) [Compound 2c, 1-(N,N-dipropylaminomethyl)-6-(4-fluorobenzoylamino)indan] | 2.2 | 5.1 | 
CCCN(CCC)CC1CCc2ccc(NS(C)(=O)=O)cc21 (centres unmarked) [Compound 2g, 1-(N,N-dipropylaminomethyl)-6-(methylsulphonylamino)indan] | 0.93 | 16 | 
CCCN(CCC)CC1CCc2ccc(NC(=O)N(C)C)cc21 (centres unmarked) [Compound 4c, 6-(3,3-dimethyl-1-ureido)-1-(N,N-dipropylaminomethyl)indan] | 0.42 | 10 | 
CCCN(CCC)CC1CSc2ccc(NC=O)cc21 (centres unmarked) [Compound 5a, 3-(N,N-dipropylaminomethyl)-5-formylamino-2,3-dihydrobenzothiophene] | 0.046 | 3.4 | 
CCCN(CCC)CC1CCc2cc(Cl)c(NC(C)=O)cc21 (centres unmarked) [Compound 11a, 6-Acetylamino-5-chloro-1-(N,N-dipropylaminomethyl)indan] | 0.26 | 21 | 
CC(=O)Nc1ccc2c(c1)C(CN(C)CCCCC1CCCCC1)CC2 (centres unmarked) [Compound 13a, 6-Acetylamino-1-[N-(4-cyclohexylbutan-1-yl)-N-methylaminomethyl]indan] | 0.15 | 1.4 | 
CC(=O)Nc1ccc2c(c1)C(CN(C)CCCCc1ccccc1)CC2 (centres unmarked) [Compound 13b, 6-Acetylamino-1-[N-methyl-N-(4-phenylbutan-1-yl)aminomethyl]indan] | 0.22 | 3.4 | 
CC(=O)Nc1ccc2c(c1)C(CN(C)CCCCc1c[nH]c3ccccc13)CC2 (centres unmarked) [Compound 13c, 6-Acetylamino-1-[N-[4-(indol-3-yl)butan-1-yl]-N-methylaminomethyl]indan] | 0.66 | 1.5 | 
CC(=O)Nc1ccc2c(c1)C(CN(C)CCN1CCNC1=O)CC2 (centres unmarked) [Compound 13d, 6-Acetylamino-1-[N-[2-(2-imidazolidinon-1-yl)ethyl]-N -methylaminomethyl]indan] | 0.61 | 1.8 | 
CC1(C)CC(=O)N(CCCCN2CCN(c3ncccn3)CC2)C(=O)C1 [gepirone, 4,4-dimethyl-1-[4-[4-(2-pyrimidyl)-1-piperazinyl]butyl]-2,6-piperidinedione] |  |  | useful in the treatment of anxiety disorders
O=C1c2ccccc2S(=O)(=O)N1CCCCN1CCN(c2ncccn2)CC1 [ipsapirone, 2-[4-[4-(2-pyrimidyl)-1-piperazinyl]butyl]-1,2-benzothiazol-3(2H)-one-1,1-dioxide] |  |  | useful in the treatment of anxiety disorders
